Measured values as given in patent publication US4230854A, “Analogues of ergot alkaloids” (Societa Farmaceutici Italia S.p.A., priority 1977, dated 1980).

Tests used:
[1] = tested on: spasmogenic effect of epinephrine on the isolated guineapig seminal vescicle; assay: adrenergic blockade in vitro: receptor blockade against the spasmogenic effect of epinephrine on the isolated guineapig seminal vescicle; type: biochemical; details: concentration producing 50% inhibition of the effect of epinephrine, estimated graphically
Procedure: (a) receptors blockade was determined against the spasmogenic effect of
epinephrine on the isolated guineapig seminal vescicle according to
Brugger J. (Helv.Physiol. Acta 3, 117, 1945). Concentration producing 50%
inhibition of the effect of the agonist were estimated graphically for […]

[2] = tested on: lethal effect of 0.2 mg/Kg epinephrine; assay: adrenergic blockade in vivo: receptor blockade in rats, protection from the lethal effect of epinephrine; details: Rattus norvegicus, iv, 5 min, dose protecting 50% of animals from the lethal effect of 0.2 mg/Kg epinephrine injected i.v. 5 min later, estimated graphically
Procedure: (b) receptor blockade was determined in rats according to Luduena F.P. et
al. (Arch. Int. Pharmacodyn CXXII, 111, 1959). ED50 is the
graphically estimated dose of antagonist protecting 50% of animals from
the lethal effect of 0.2 mg/Kg epinephrine, injected i.v. 5 min later.

[3] = acute toxicity (LD50) in mice; details: mouse, in vivo, iv, standard procedure
Procedure: (c) LD50 was determined in mice according to the standard procedure.

SMILES | adrenergic blockade In vitro IC50 [1] [µg/mL] | ED50 [2] [mg/kg] | LD50 [3] [mg/kg]
CC(C)[C@@]1(NC(=O)[C@@H]2C[C@@H]3c4cccc5[nH]cc(c45)C[C@H]3N(C)C2)O[C@@]2(O)[C@@H]3CCCN3C(=O)[C@H](Cc3ccc(Cl)cc3)N2C1=O [5'-debenzyl-5'-p-chlorobenzyl dihydroergocristine] | 0.03 | 0.02 | 190
CN1C[C@H](C(=O)N[C@]2(C)O[C@@]3(O)[C@@H]4CCCN4C(=O)[C@H](Cc4ccc(Cl)cc4)N3C2=O)C[C@@H]2c3cccc4[nH]cc(c34)C[C@H]21 [5'-debenzyl-5'-p-chlorobenzyl dihydroergotamine] | 0.02 | 0.05 | 150
CN1C[C@H](C(=O)N[C@]2(C)O[C@@]3(O)[C@@H]4CCCN4C(=O)[C@H](Cc4ccc(Cl)cc4)N3C2=O)C=C2c3cccc4[nH]cc(c34)C[C@H]21 [5'-debenzyl-5'-p-chlorobenzyl ergotamine] | 0.03 | 0.1 | 100
CC(C)[C@@]1(NC(=O)[C@@H]2C[C@@H]3c4cccc5[nH]cc(c45)C[C@H]3N(C)C2)O[C@@]2(O)[C@@H]3CCCN3C(=O)[C@H](Cc3ccccc3)N2C1=O [Dihydroergocristine, reference compound] |  | 0.03 | 174
CN1C[C@H](C(=O)N[C@]2(C)O[C@@]3(O)[C@@H]4CCCN4C(=O)[C@H](Cc4ccccc4)N3C2=O)C[C@@H]2c3cccc4[nH]cc(c34)C[C@H]21 [Dihydroergotamine, reference compound] | 0.02 | 0.08 | 118
CN1C[C@H](C(=O)N[C@]2(C)O[C@@]3(O)[C@@H]4CCCN4C(=O)[C@H](Cc4ccccc4)N3C2=O)C=C2c3cccc4[nH]cc(c34)C[C@H]21 [Ergotamine, reference compound] | 0.07 | 0.2 | 70
